Experimental data reported in ChEMBL document CHEMBL3822442, “Synthesis and Pharmacological Characterization of Novel Glucagon-like Peptide-2 (GLP-2) Analogues with Low Systemic Clearance” (J Med Chem, 2016).

What was measured:
[1] = molecular target: T1, Glucagon-like peptide 2 receptor (Homo sapiens, UniProt O95838); experiment: Agonist activity at human GLP2R expressed in HEK293 cells after 5 hrs by luciferase reporter gene assay; format: cell-based
T1 sequence (O95838 whole entry): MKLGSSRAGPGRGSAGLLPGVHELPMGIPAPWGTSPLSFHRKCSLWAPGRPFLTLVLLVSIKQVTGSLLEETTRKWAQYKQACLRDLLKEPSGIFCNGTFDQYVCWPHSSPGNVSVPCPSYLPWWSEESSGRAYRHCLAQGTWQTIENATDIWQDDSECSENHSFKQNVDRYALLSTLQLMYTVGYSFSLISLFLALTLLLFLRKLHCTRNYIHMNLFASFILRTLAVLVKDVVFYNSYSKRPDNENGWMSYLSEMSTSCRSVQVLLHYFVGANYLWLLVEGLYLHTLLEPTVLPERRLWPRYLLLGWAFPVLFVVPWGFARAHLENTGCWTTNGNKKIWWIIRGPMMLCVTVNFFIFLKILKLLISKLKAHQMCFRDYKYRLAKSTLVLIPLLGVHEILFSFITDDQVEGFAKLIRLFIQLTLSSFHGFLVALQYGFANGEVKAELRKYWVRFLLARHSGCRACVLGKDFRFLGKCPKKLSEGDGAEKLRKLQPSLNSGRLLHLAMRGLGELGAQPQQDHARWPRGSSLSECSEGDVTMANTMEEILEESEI

[2] = molecular target: Glucagon-like peptide 1 receptor (Homo sapiens, UniProt P43220); experiment: Agonist activity at human GLP1R expressed in HEK293 cells after 5 hrs by luciferase reporter gene assay; format: cell-based
Sequence of Glucagon-like peptide 1 receptor (P43220 whole entry): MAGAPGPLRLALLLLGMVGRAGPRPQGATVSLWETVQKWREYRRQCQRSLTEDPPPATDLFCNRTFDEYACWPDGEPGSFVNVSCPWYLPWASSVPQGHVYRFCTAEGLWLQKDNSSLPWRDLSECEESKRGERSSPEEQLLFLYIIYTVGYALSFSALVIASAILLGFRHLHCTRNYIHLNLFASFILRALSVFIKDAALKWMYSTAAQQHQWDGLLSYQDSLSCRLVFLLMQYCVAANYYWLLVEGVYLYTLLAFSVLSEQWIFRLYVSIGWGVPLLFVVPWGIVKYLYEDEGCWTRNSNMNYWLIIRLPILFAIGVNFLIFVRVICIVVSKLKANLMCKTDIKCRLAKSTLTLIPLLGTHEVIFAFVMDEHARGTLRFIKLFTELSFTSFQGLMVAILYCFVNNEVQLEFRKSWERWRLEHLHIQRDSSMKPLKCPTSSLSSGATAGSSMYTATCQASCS

| EC50 [1] | EC50 [2] | Structure (SMILES) |
| --- | --- | --- |
| 0.13 nM | > 1000 nM | CCCC[C@H](NC(=O)[C@H](CCC(=O)O)NC(=O)[C@H](CC(=O)O)NC(=O)[C@H](CO)NC(=O)[C@H](Cc1ccccc1)NC(=O)[C@H](CO)NC(=O)CNC(=O)[C@H](CC(=O)O)NC(=O)CNC(=O)[C@@H](N)Cc1c[nH]cn1)C(=O)N[C@@H](CC(N)=O)C(=O)N[C@H](C(=O)N[C@H](C(=O)N[C@@H](CC(C)C)C(=O)N[C@@H](CC(=O)O)C(=O)N[C@@H](Cc1ccc(N)cc1)C(=O)N[C@@H](CC(C)C)C(=O)N[C@@H](C)C(=O)N[C@@H](C)C(=O)N[C@@H](CCCNC(=N)N)C(=O)N[C@@H](CC(=O)O)C(=O)N[C@@H](Cc1ccccc1)C(=O)N[C@H](C(=O)N[C@@H](CC(N)=O)C(=O)N[C@@H](Cc1c[nH]c2ccccc12)C(=O)N[C@@H](CC(C)C)C(=O)N[C@H](C(=O)N[C@@H](CCC(N)=O)C(=O)N[C@H](C(=O)N[C@@H](CCCCN)C(N)=O)[C@@H](C)O)[C@@H](C)CC)[C@@H](C)CC)[C@@H](C)CC)[C@@H](C)O |
| 0.1 nM | > 1000 nM | CCCC[C@H](NC(=O)[C@H](CCC(=O)O)NC(=O)[C@H](CC(=O)O)NC(=O)[C@H](CO)NC(=O)[C@H](Cc1ccccc1)NC(=O)[C@H](CO)NC(=O)CNC(=O)[C@H](CC(=O)O)NC(=O)CNC(=O)[C@@H](N)Cc1cnc[nH]1)C(=O)N[C@@H](CC(N)=O)C(=O)N[C@H](C(=O)N[C@H](C(=O)N[C@@H](CC(C)C)C(=O)N[C@@H](CC(=O)O)C(=O)N[C@@H](CC1CCCCC1)C(=O)N[C@@H](CC(C)C)C(=O)N[C@@H](C)C(=O)N[C@@H](C)C(=O)N[C@@H](CCCNC(=N)N)C(=O)N[C@@H](CC(=O)O)C(=O)N[C@@H](Cc1ccccc1)C(=O)N[C@H](C(=O)N[C@@H](CC(N)=O)C(=O)N[C@@H](Cc1c[nH]c2ccccc12)C(=O)N[C@@H](CC(C)C)C(=O)N[C@H](C(=O)N[C@@H](CCC(N)=O)C(=O)N[C@H](C(=O)N[C@@H](CCCCN)C(N)=O)[C@@H](C)O)[C@@H](C)CC)[C@@H](C)CC)[C@@H](C)CC)[C@@H](C)O |
| 0.31 nM | > 1000 nM | CCCC[C@H](NC(=O)[C@H](CCC(=O)O)NC(=O)[C@H](CC(=O)O)NC(=O)[C@H](CO)NC(=O)[C@H](Cc1ccccc1)NC(=O)[C@H](CO)NC(=O)CNC(=O)[C@H](CC(=O)O)NC(=O)CNC(=O)[C@@H](N)Cc1cnc[nH]1)C(=O)N[C@H](CC(C)C)C(=O)N[C@H](C(=O)N[C@H](C(=O)N[C@@H](CC(C)C)C(=O)N[C@@H](CC(=O)O)C(=O)N[C@@H](CC(N)=O)C(=O)N[C@@H](CC(C)C)C(=O)N[C@@H](C)C(=O)N[C@@H](C)C(=O)N[C@@H](CCCNC(=N)N)C(=O)N[C@@H](CC(=O)O)C(=O)N[C@@H](Cc1ccccc1)C(=O)N[C@H](C(=O)N[C@@H](CC(N)=O)C(=O)N[C@@H](Cc1c[nH]c2ccccc12)C(=O)N[C@@H](CC(C)C)C(=O)N[C@H](C(=O)N[C@@H](CCC(N)=O)C(=O)N[C@H](C(=O)N[C@@H](CCCCN)C(N)=O)[C@@H](C)O)[C@@H](C)CC)[C@@H](C)CC)[C@@H](C)CC)[C@@H](C)O |
| 0.19 nM | > 1000 nM | CCCC[C@H](NC(=O)[C@H](CCC(=O)O)NC(=O)[C@H](CC(=O)O)NC(=O)[C@H](CO)NC(=O)[C@H](Cc1ccccc1)NC(=O)[C@H](CO)NC(=O)CNC(=O)[C@H](CC(=O)O)NC(=O)CNC(=O)[C@@H](N)Cc1cnc[nH]1)C(=O)N[C@@H](CC(N)=O)C(=O)N[C@H](C(=O)N[C@H](C(=O)N[C@@H](CC(C)C)C(=O)N[C@@H](CC(=O)O)C(=O)N[C@@H](Cc1cccc2ccccc12)C(=O)N[C@@H](CC(C)C)C(=O)N[C@@H](C)C(=O)N[C@@H](C)C(=O)N[C@@H](CCCNC(=N)N)C(=O)N[C@@H](CC(=O)O)C(=O)N[C@@H](Cc1ccccc1)C(=O)N[C@H](C(=O)N[C@@H](CC(N)=O)C(=O)N[C@@H](Cc1c[nH]c2ccccc12)C(=O)N[C@@H](CC(C)C)C(=O)N[C@H](C(=O)N[C@@H](CCC(N)=O)C(=O)N[C@H](C(=O)N[C@@H](CCCCN)C(N)=O)[C@@H](C)O)[C@@H](C)CC)[C@@H](C)CC)[C@@H](C)CC)[C@@H](C)O |
| 0.09 nM | 60 nM | CCCC[C@H](NC(=O)[C@H](CCC(=O)O)NC(=O)[C@H](CC(=O)O)NC(=O)[C@H](CO)NC(=O)[C@H](Cc1ccccc1)NC(=O)[C@H](CO)NC(=O)CNC(=O)[C@H](CC(=O)O)NC(=O)CNC(=O)[C@@H](N)Cc1cnc[nH]1)C(=O)N[C@H](Cc1ccc(Cl)cc1)C(=O)N[C@H](C(=O)N[C@H](C(=O)N[C@@H](CC(C)C)C(=O)N[C@@H](CC(=O)O)C(=O)N[C@@H](CC(N)=O)C(=O)N[C@@H](CC(C)C)C(=O)N[C@@H](C)C(=O)N[C@@H](C)C(=O)N[C@@H](CCCNC(=N)N)C(=O)N[C@@H](CC(=O)O)C(=O)N[C@@H](Cc1ccccc1)C(=O)N[C@H](C(=O)N[C@@H](CC(N)=O)C(=O)N[C@@H](Cc1c[nH]c2ccccc12)C(=O)N[C@@H](CC(C)C)C(=O)N[C@H](C(=O)N[C@@H](CCC(N)=O)C(=O)N[C@H](C(=O)N[C@@H](CCCCN)C(N)=O)[C@@H](C)O)[C@@H](C)CC)[C@@H](C)CC)[C@@H](C)CC)[C@@H](C)O |
| 0.05 nM | > 1000 nM | CCCC[C@H](NC(=O)[C@H](CCC(=O)O)NC(=O)[C@H](CC(=O)O)NC(=O)[C@H](CO)NC(=O)[C@H](Cc1ccccc1)NC(=O)[C@H](CO)NC(=O)CNC(=O)[C@H](CC(=O)O)NC(=O)CNC(=O)[C@@H](N)Cc1cnc[nH]1)C(=O)N[C@H](Cc1ccccc1)C(=O)N[C@H](C(=O)N[C@H](C(=O)N[C@@H](CC(C)C)C(=O)N[C@@H](CC(=O)O)C(=O)N[C@@H](CC(C)C)C(=O)N[C@@H](CC(C)C)C(=O)N[C@@H](C)C(=O)N[C@@H](C)C(=O)N[C@@H](CCCNC(=N)N)C(=O)N[C@@H](CC(=O)O)C(=O)N[C@@H](Cc1ccccc1)C(=O)N[C@H](C(=O)N[C@@H](CC(N)=O)C(=O)N[C@@H](Cc1c[nH]c2ccccc12)C(=O)N[C@@H](CC(C)C)C(=O)N[C@H](C(=O)N[C@@H](CCC(N)=O)C(=O)N[C@H](C(=O)N[C@@H](CCCCN)C(=O)N[C@H](C(=O)N[C@H](C(=O)N[C@@H](CC(=O)O)C(=O)NCC)[C@@H](C)O)[C@@H](C)CC)[C@@H](C)O)[C@@H](C)CC)[C@@H](C)CC)[C@@H](C)CC)[C@@H](C)O |
| 0.03 nM | > 1000 nM | CCCC[C@H](NC(=O)[C@H](CCC(=O)O)NC(=O)[C@H](CC(=O)O)NC(=O)[C@H](CO)NC(=O)[C@H](Cc1ccccc1)NC(=O)[C@H](CO)NC(=O)CNC(=O)[C@H](CC(=O)O)NC(=O)CNC(=O)[C@@H](N)Cc1cnc[nH]1)C(=O)N[C@H](Cc1ccccc1)C(=O)N[C@H](C(=O)N[C@H](C(=O)N[C@@H](CC(C)C)C(=O)N[C@@H](CC(=O)O)C(=O)N[C@@H](CC(C)C)C(=O)N[C@@H](CC(C)C)C(=O)N[C@@H](C)C(=O)N[C@@H](C)C(=O)N[C@@H](CCCNC(=N)N)C(=O)N[C@@H](CC(=O)O)C(=O)N[C@@H](Cc1ccccc1)C(=O)N[C@H](C(=O)N[C@@H](CC(N)=O)C(=O)N[C@@H](Cc1c[nH]c2ccccc12)C(=O)N[C@@H](CC(C)C)C(=O)N[C@H](C(=O)N[C@@H](CCC(N)=O)C(=O)N[C@H](C(=O)N[C@@H](CCCCN)C(=O)N[C@H](C(=O)N[C@H](C(=O)N[C@@H](CC(=O)O)C(=O)NCCOCCOCCOCCOCCC(N)=O)[C@@H](C)O)[C@@H](C)CC)[C@@H](C)O)[C@@H](C)CC)[C@@H](C)CC)[C@@H](C)CC)[C@@H](C)O |
| 0.08 nM | > 1000 nM | CCCC[C@H](NC(=O)[C@H](CCC(=O)O)NC(=O)[C@H](CC(=O)O)NC(=O)[C@H](CO)NC(=O)[C@H](Cc1ccccc1)NC(=O)[C@H](CO)NC(=O)CNC(=O)[C@H](CC(=O)O)NC(=O)CNC(=O)[C@@H](N)Cc1cnc[nH]1)C(=O)N[C@H](Cc1cccs1)C(=O)N[C@H](C(=O)N[C@H](C(=O)N[C@@H](CC(C)C)C(=O)N[C@@H](CC(=O)O)C(=O)N[C@@H](Cc1ccccc1)C(=O)N[C@@H](CC(C)C)C(=O)N[C@@H](C)C(=O)N[C@@H](C)C(=O)N[C@@H](CCCNC(=N)N)C(=O)N[C@@H](CC(=O)O)C(=O)N[C@@H](Cc1ccccc1)C(=O)N[C@H](C(=O)N[C@@H](CC(N)=O)C(=O)N[C@@H](Cc1c[nH]c2ccccc12)C(=O)N[C@@H](CC(C)C)C(=O)N[C@H](C(=O)N[C@@H](CCC(N)=O)C(=O)N[C@H](C(=O)N[C@@H](CCCCN)C(N)=O)[C@@H](C)O)[C@@H](C)CC)[C@@H](C)CC)[C@@H](C)CC)[C@@H](C)O |
| 0.35 nM | > 1000 nM | CCCC[C@H](NC(=O)[C@H](CCC(=O)O)NC(=O)[C@H](CC(=O)O)NC(=O)[C@H](CO)NC(=O)[C@H](Cc1ccccc1)NC(=O)[C@H](CO)NC(=O)CNC(=O)[C@H](CC(=O)O)NC(=O)CNC(=O)[C@@H](N)Cc1cnc[nH]1)C(=O)N[C@@H](CC(N)=O)C(=O)N[C@H](C(=O)N[C@H](C(=O)N[C@@H](CC(C)C)C(=O)N[C@@H](CC(=O)O)C(=O)N[C@@H](Cc1ccc(-c2ccccc2)cc1)C(=O)N[C@@H](CC(C)C)C(=O)N[C@@H](C)C(=O)N[C@@H](C)C(=O)N[C@@H](CCCNC(=N)N)C(=O)N[C@@H](CC(=O)O)C(=O)N[C@@H](Cc1ccccc1)C(=O)N[C@H](C(=O)N[C@@H](CC(N)=O)C(=O)N[C@@H](Cc1c[nH]c2ccccc12)C(=O)N[C@@H](CC(C)C)C(=O)N[C@H](C(=O)N[C@@H](CCC(N)=O)C(=O)N[C@H](C(=O)N[C@@H](CCCCN)C(N)=O)[C@@H](C)O)[C@@H](C)CC)[C@@H](C)CC)[C@@H](C)CC)[C@@H](C)O |
